Among the test systems are CCRF-CEM leukemia; COLO 205 colon; HCT-15 colon; HL-60(TB) leukemia; IGROV1 ovarian; LOX IMVI melanoma; M14 melanoma; MCF7 breast; MDA-MB-435; MOLT-4 leukemia; OVCAR-3 ovarian; OVCAR-8 ovarian; SK-MEL-5 melanoma; SN12C renal; SNB-19 CNS; TK-10 renal; U251 CNS; UACC-257 melanoma; RPMI-8226 leukemia.
What all share (assay): NCI anticancer screen, dose series, 48 h

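Five compound concentrations were applied to cells in 96-well plates for 48 hours; endpoints were derived by simple linear interpolation of the resulting dose-response curve. At the TGI there is no net growth.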

In the case of `COc1cccc(C2c3cc4c(cc3OC(C)(N3CCCC3)C2C)OCO4)c1` (stereo not drawn), the TGI in the assay with CCRF-CEM leukemia is more than 100 µM; with COLO 205 colon it was 23.6 µM; in the assay with HCT-15 colon, 44.2 µM; in the assay with HL-60(TB) leukemia, more than 100 µM; in the assay on IGROV1 ovarian, 37.9 µM; in the assay with LOX IMVI melanoma it was 25.1 µM. For the same molecule, the TGI with M14 melanoma is 13.9 µM; in the assay with MCF7 breast, 45.7 µM; with MDA-MB-435 it was 32.9 µM; in the assay with MOLT-4 leukemia, more than 100 µM; in the assay with OVCAR-3 ovarian, 22 µM; in the assay with OVCAR-8 ovarian, 64.1 µM. Besides, the TGI in the assay with SK-MEL-5 melanoma is 14.5 µM; with SN12C renal, 48.6 µM; in the assay with SNB-19 CNS, more than 100 µM; with TK-10 renal it was 37.2 µM; in the assay with U251 CNS it was 35.8 µM; with UACC-257 melanoma, 70 µM.

On to `CC(C)=CCC/C(C)=C/CC/C(C)=C/CC(CO)N(C)CC/C=C(\C)CCC=C(C)C` (stereo not drawn), for which the TGI in the assay with CCRF-CEM leukemia is more than 25.2 µM; with COLO 205 colon, 6.85 µM; in the assay on HCT-15 colon, 14.8 µM; in the assay with IGROV1 ovarian, 16 µM; with LOX IMVI melanoma it was 7.56 µM; with M14 melanoma it was 3.75 µM. Further, the TGI in the assay on MCF7 breast turned out to be 4.8 µM; in the assay on MDA-MB-435 it was 13.2 µM; with MOLT-4 leukemia it was 6.69 µM; in the assay on OVCAR-3 ovarian, 27.8 µM; in the assay with OVCAR-8 ovarian, 20.2 µM; in the assay on RPMI-8226 leukemia, 10.1 µM. Also, the TGI in the assay on SK-MEL-5 melanoma stood at 23.2 µM; with SN12C renal, 17.4 µM; with SNB-19 CNS it was 21.5 µM; with TK-10 renal, 22.7 µM; in the assay on U251 CNS, 14.5 µM; in the assay on UACC-257 melanoma, 19.3 µM.

On to `CCOC(=O)Cc1ccc(Nc2nc3ccccc3nc2C(=O)OCC)cc1`, for which the TGI in the assay on CCRF-CEM leukemia, in the assay on COLO 205 colon, in the assay on HCT-15 colon, in the assay on HL-60(TB) leukemia, in the assay on IGROV1 ovarian and in the assay on LOX IMVI melanoma was more than 100 µM each time. The TGI in the assay with M14 melanoma, with MCF7 breast, in the assay with MDA-MB-435, in the assay on MOLT-4 leukemia, in the assay on OVCAR-3 ovarian and in the assay on OVCAR-8 ovarian was more than 100 µM each time. Besides, the TGI in the assay on SK-MEL-5 melanoma was more than 100 µM; with SN12C renal, more than 100 µM; in the assay with SNB-19 CNS, 41 µM; in the assay with TK-10 renal, more than 100 µM; in the assay with U251 CNS, more than 100 µM; in the assay on UACC-257 melanoma, more than 100 µM.

`CC(C)(C)OC/C=C(/CO)[C@@H]1C=C[C@H](O)C1`: the TGI in the assay with CCRF-CEM leukemia, in the assay with COLO 205 colon, with HCT-15 colon, in the assay on M14 melanoma, with MCF7 breast and in the assay on MDA-MB-435 was more than 100 µM throughout. The TGI in the assay with MOLT-4 leukemia, in the assay with OVCAR-3 ovarian, in the assay on RPMI-8226 leukemia, with SN12C renal, with SNB-19 CNS and in the assay on U251 CNS was more than 100 µM throughout. Moreover, the TGI with UACC-257 melanoma was more than 100 µM.

In the case of `CCCC(=O)N1CCN(c2ccc3c(c2)OC(C)O3)CC1` (stereo not drawn), the TGI in the assay on CCRF-CEM leukemia, in the assay on COLO 205 colon, in the assay with HCT-15 colon, with IGROV1 ovarian, in the assay on M14 melanoma and in the assay on MCF7 breast was more than 100 µM in each case. Also, the TGI in the assay with MDA-MB-435, in the assay on MOLT-4 leukemia, with OVCAR-3 ovarian, in the assay with OVCAR-8 ovarian, with SK-MEL-5 melanoma and in the assay with SN12C renal was more than 100 µM each time. For the same molecule, the TGI in the assay on SNB-19 CNS, with TK-10 renal, in the assay with U251 CNS and in the assay on UACC-257 melanoma was more than 100 µM throughout.

Regarding `C=C1CC/C=C(\C)CCC[C@H](C)[C@@H](O)[C@@H]2OC(=O)C(=C)[C@@H]2C[C@H]1O`, the TGI in the assay on COLO 205 colon was 29.9 µM; with HCT-15 colon, 13.1 µM; in the assay on HL-60(TB) leukemia it was more than 100 µM; in the assay with IGROV1 ovarian, 13.8 µM; in the assay on LOX IMVI melanoma, 25.9 µM; in the assay on M14 melanoma, 28.4 µM. Moreover, the TGI with MCF7 breast is more than 42.7 µM; in the assay on MDA-MB-435 it was 17.3 µM; with MOLT-4 leukemia, 9.62 µM; in the assay with OVCAR-3 ovarian, 22.6 µM; in the assay on OVCAR-8 ovarian, 16.7 µM; in the assay with RPMI-8226 leukemia, more than 21.9 µM. Besides, the TGI came to 22.6 µM in the assay on SK-MEL-5 melanoma; 42 µM with SN12C renal; 28.7 µM in the assay with SNB-19 CNS; 4.5 µM in the assay on TK-10 renal; 50.2 µM with U251 CNS; 31.9 µM with UACC-257 melanoma.

As to `CCOc1nnnc2nc[nH]c12`, the TGI with COLO 205 colon, in the assay with HCT-15 colon, in the assay with HL-60(TB) leukemia, in the assay with IGROV1 ovarian, with LOX IMVI melanoma and in the assay with M14 melanoma was more than 100 µM each time. Further, the TGI with MCF7 breast, in the assay on MDA-MB-435, in the assay with MOLT-4 leukemia, with OVCAR-3 ovarian, with OVCAR-8 ovarian and with RPMI-8226 leukemia was more than 100 µM throughout. The TGI with SK-MEL-5 melanoma, with SN12C renal, with TK-10 renal, in the assay on U251 CNS and in the assay with UACC-257 melanoma was more than 100 µM throughout.

As for `Nc1ccn([C@H]2CO[C@@H](CO)[C@@H]2O)c(=O)n1`, the TGI in the assay with CCRF-CEM leukemia, in the assay on COLO 205 colon, with HCT-15 colon, in the assay with IGROV1 ovarian, with LOX IMVI melanoma and in the assay on MCF7 breast was more than 100 µM each time. Besides, the TGI in the assay with MDA-MB-435, in the assay with MOLT-4 leukemia, in the assay on OVCAR-3 ovarian, with RPMI-8226 leukemia, with SK-MEL-5 melanoma and with SN12C renal was more than 100 µM in each case. The TGI with TK-10 renal, in the assay on U251 CNS and in the assay on UACC-257 melanoma was more than 100 µM each time.

Source of the values: PubChem BioAssay (NCI).
